Assay results: patent US20230241071A1, “COMBINATION TREATMENT OF LIVER DISORDERS” (Terns Pharmaceuticals, Inc., priority 2021, published 2023)

Legend:
[1] = Mouse NASH model (high fat diet + CCl4), Compound 2; assay type: in vivo; conditions: C57BL/6J, in vivo, oral; mouse model of NASH; read-out: threshold AUC achieving significant histological improvement
Experimental: (§1) C57BL/6J mice were fed a high fat diet for 10 weeks to induce obesity (>38 g BW). Obese mice were injected intraperitoneally (i.p.) twice a week for four weeks with 0.5 μl/g 25% CCl4 (formulated in olive oil) to induce fibrosis, and one group of normal BW mice were injected i.p. twice a week for four weeks with olive oil to serve as a healthy control. During the same dosing period, obese mice were fed orally once a day for 28 days with vehicle or varying doses of Compound 2. On CCl4 dosing days, CCl4 was administered at 4 hours post compound or vehicle dosing. On day 27, all animals were fasted for about 16 hours before terminal euthanasia. On day 28, all animals were sacrificed and various biological parameters were analyzed. Total body, liver, heart and brain weight were measured and changes in liver and heart weight were normalized using brain weight.
(§2) Liver samples were collected for whole transcriptome analysis by RNA sequencing (RNAseq). RNAseq library (n=5 per group) preparation and sequencing was performed using Illumina standard protocols. Alignment of sequencing reads was performed using STAR aligner software and read counts were estimated using RSEM. Differentially expressed genes (compared to vehicle-treated NASH control mice) were determined using EdgeR software. Gene ontology analysis was performed using Advaita software with fold-change and adjusted p-value cutoffs of >1.5 and <0.05, respectively. Gene ontologies were derived from the Gene Ontology Consortium database (2019 Apr. 26) (Ashburner et al., Gene ontology: Tool for the unification of biology. Nature Genetics 25(1): 25-9 (2000); Gene Ontology Consortium, Creating the Gene Ontology Resource: Design and Implementation. Genome Research 11: 1425-1433 (2001)).

mouse NASH model = test: as above; assay type: in vivo
Experimental: as §1, §2

[2] = Capsule pharmacokinetics in beagle dogs; assay type: in vivo, dog
Experimental: To determine the effect of the solubilizer on the uptake of compound 2, 50 mg (based on free acid) Compound 2 was formulated in a capsule with or without 5 wt % SLS (see Table 10) and was administered to fasted beagle dogs pre-treated with pentagastrin (6 μg/kg, administered by intramuscular injection 30±2 minutes prior to administration of compound 2). The plasma concentration of compound 2 was measured over 24 hours (see FIG. 9).
To determine the pH effect on PK performance, beagle dogs were divided into two groups (n=3 per group). For group 1, dogs were pre-treated with pentagastrin (6 μg/kg, intramuscular injection 30±2 minutes prior to administration of compound 2). For group 2, dogs were pre-treated with famotidine (2 tablets, 20 mg/tablet, oral administration 180±10 minutes prior to administration of compound 2). Compound 2 (10 mg capsule, 5% SLS) was administered, and plasma concentrations of compound 2 were monitored for 24 h and are depicted in FIG. 10. […] To determine the food effect on PK performance, beagle dogs were divided into two groups (n=3 per group). For the fasted group, dogs were fasted overnight through 4-hours post dosing. For the fed group, dogs were fed high fat food 30 minutes prior to administration. Plasma concentrations of compound 2 were monitored for 24 h. Compound 2 (10 mg capsule, 5% SLS) was administered, and plasma concentrations of compound 2 were monitored for 24 h and are depicted in FIG. 11.

[3] = oral QD 28 days, all doses tested

N#Cc1nn(-c2cc(Cl)c(Oc3n[nH]c(=O)c4ccccc34)c(Cl)c2)c(=O)[nH]c1=O [Compound 2, 2-(3,5-dichloro-4-((4-oxo-3,4-dihydrophthalazin-1-yl)oxy)phenyl)-3,5-dioxo-2,3,4,5-tetrahydro-1,2,4-triazine-6-carbonitrile]
AUC [1]: 3320 ng·h/mL | expression of genes associated with collagen extracellular matrix and hepatic stellate cell activation (mouse NASH model; liver RNAseq vs NASH control mice): reducing their expression levels | liver inflammation (histology) (mouse NASH model; oral QD 28 days): trend in inflammation reduction | liver/brain weight (mouse NASH model; oral QD 28 days): significantly reduced | total body weight or heart/brain weight (mouse NASH model; oral QD 28 days): no effect | liver fibrosis (histology) (mouse NASH model; oral QD 28 days, 3 and 10 mpk): significantly reduced | liver steatosis (histology) (mouse NASH model; [3]): significantly reduced | serum total cholesterol, triglycerides and ALT (mouse NASH model; [3]): significantly reduced | food effect on PK performance ([2]; 10 mg capsule, 5% SLS, fasted vs high fat food): delayed Compound 2 Tmax but did not have an impact on the plasma exposure | pH effect on PK performance ([2]; 10 mg capsule, 5% SLS, pentagastrin vs famotidine pre-treatment): Minimal pH effect | increase of exposure (Cmax, AUC) by formulation with 5 wt % SLS ([2]; 50 mg capsule with vs without 5 wt % SLS, fasted beagle dogs): more than 70%
